Results taken from patent publication US20160297763A1, “Heteroaryl hydroxamic acid derivatives and their use in the treatment, amelioration or prevention of a viral disease” (priority 2011, published 2016).
Read-outs that look alike come from different tables or passages of the source.

Columns and labels:
[1] = system: influenza A virus A/Aichi/2/68 (H3N2); assay: Cytopathic effect (CPE) assay H3N2; assay type: cell-based, influenza A virus (H3N2) on MDCK cells; conditions: for inhibition at 2 µM: H3N2, activity conc 2 (μM per method); for inhibition at 50 µM: H3N2, activity conc 50 (μM per method); for inhibition at 20 µM: H3N2, activity conc 20 (μM per method)
Description: A possible measure of the […] antiviral activity of the compounds having the formula I or II is the CPE assay disclosed herein. […] In this connection, the reduction in the virus-mediated cytopathic effect (CPE) upon treatment with the compounds was calculated as follows: The cell viability of infected-treated and uninfected-treated cells was determined using an ATP-based cell viability assay (Promega). The response in relative luminescent units (RLU) of infected-untreated samples was subtracted from the response (RLU) of the infected-treated samples and then normalized to the viability of the corresponding uninfected sample resulting in % CPE reduction.
The influenza A virus (IAV) was obtained from American Tissue Culture Collection (A/Aichi/2/68 (H3N2); VR-547). Virus stocks were prepared by propagation of virus on Mardin-Darby canine kidney (MDCK; ATCC CCL-34) cells and infectious titres of virus stocks were determined by the 50% tissue culture infective dose (TCID50) analysis as described in Reed, L. J., and H. Muench. 1938, Am. J. Hyg. 27:493-497.
MDCK cells were seeded in 96-well plates at 2×10^4 cells/well using DMEM/Ham's F-12 (1:1) medium containing 10% foetal bovine serum (FBS), 2 mM L-glutamine and 1 antibiotics (all from PAA). Until infection the cells were incubated for 5 hrs at 37° C., 5.0 CO2 to form a ˜80% confluent monolayer on the bottom of the well. Each test compound was dissolved in DMSO and generally tested at 25 μM and 250 μM. In those cases where the compounds were not soluble at that concentration they were tested at the highest soluble concentration. The compounds were diluted in infection medium (DMEM/Ham's F-12 (1:1) containing 5 μg/ml trypsin, and 1% antibiotics) for a final plate well DMSO concentration of 1%. The virus stock was diluted in infection medium (DMEM/Ham's F-12 (1:1) containing 5 μg/ml Trypsin, 1% DMSO, and 1% antibiotics) to a theoretical multiplicity of infection (MOI) of 0.05.
After removal of the culture medium and one washing step with PBS, virus and compound were added together to the cells. In the wells used for cytotoxicity determination (i.e. in the absence of viral infection), no virus suspension was added. Instead, infection medium was added. Each treatment was conducted in two replicates. After incubation at 37° C., 5% CO2 for 48 hrs, each well was observed microscopically for apparent cytotoxicity, precipitate formation, or other notable abnormalities. Then, cell viability was determined using CellTiter-Glo luminescent cell viability assay (Promega). The supernatant was removed carefully and 65 μl of the reconstituted reagent were added to each well and incubated with gentle shaking for 15 min at room temperature. Then, 60 μl of the solution was transferred to an opaque plate and luminescence (RLU) was measured using Synergy HT plate reader (Biotek).
Relative cell viability values of uninfected-treated versus uninfected-untreated cells were used to evaluate cytotoxicity of the compounds. Substances with a relative viability below 80% at the tested concentration were regarded as cytotoxic and retested at lower concentrations.
Reduction in the virus-mediated cytopathic effect (CPE) upon treatment with the compounds was calculated as follows: The response (RLU) of infected-untreated samples was subtracted from the response (RLU) of the infected-treated samples and then normalized to the viability of the corresponding uninfected sample resulting in % CPE reduction.

[2] = Influenza A virus, read-out: CPE H3N2 reduction (%)
[3] = activity conc 50 (μM per method)
[4] = Influenza A virus, H3N2, activity conc 5 (μM per method), read-out: CPE H3N2 reduction (%)

Cc1c(-c2ccccc2)sc2nc(Nc3ccccc3)[nH]c(=O)c12
melting point: 270 to 290 °C

O=C(c1cc(-c2cccc(CO)c2)ccn1)N(O)Cc1ccccc1
melting point: 150 to 155 °C

O=C(NO)c1cc(N2CCOCC2)ccn1
melting point: 215 to 220 °C (dec.)

Cl.O=C(NO)c1cc(NS(=O)(=O)Cc2cccc3cccnc23)ccn1
melting point: 220 to 228 °C

Cl.O=C(c1cc(NS(=O)(=O)Cc2cccc(Cl)c2)ccn1)N(O)Cc1ccccc1
melting point: 115 to 125 °C

Cc1c(-c2ccccc2)sc2nc(NCCO)[nH]c(=O)c12
melting point: 227 to 229 °C

O=C(NO)c1ccc(-c2ccccc2)cn1
melting point: 175 to 180 °C

COc1cc(-c2sc3nc(N)[nH]c(=O)c3c2C)ccc1Cl
melting point: 312 to 322 °C

Cl.O=C(NO)c1cc(NS(=O)(=O)Cc2ccc(Cl)c(Cl)c2)ccn1
melting point: 228 to 238 °C

Cc1cccc(C(=O)NOCc2ccccc2)n1
melting point: 75 to 80 °C

Cc1c(-c2cccc(F)c2)sc2nc(N)[nH]c(=O)c12
melting point: 310 to 330 °C

CCONC(=O)c1cc(NCC2CCN(Cc3ccccc3)CC2)ccn1.Cl.Cl (hydrate or solvate)
melting point: 125 to 130 °C

Cc1c(-c2ccccc2)sc2nc(NCCNC(=O)CCCN3CCN(C)CC3)[nH]c(=O)c12
melting point: 192 to 196 °C

Cc1c(-c2ccc(F)nc2F)sc2nc(N)[nH]c(=O)c12
melting point: 330 to 335 °C

Cc1c(-c2ccc(F)cc2)sc2nc(N)[nH]c(=O)c12
melting point: 325 to 335 °C

Cl.O=C(NO)c1cc(NS(=O)(=O)Cc2ccccc2F)ccn1
melting point: 209 to 216 °C

Cl.O=C(NO)c1cc(NS(=O)(=O)Cc2cccc(Br)c2)ccn1
melting point: 197 to 205 °C

Cc1c(-c2ccc(F)cc2F)sc2nc(N)[nH]c(=O)c12
melting point: 330 to 350 °C

Cc1c(-c2ccc(Cl)cc2F)sc2nc(N)[nH]c(=O)c12
melting point: 320 to 340 °C

O=C(NO)c1cc2ccccc2cn1
melting point: 160 to 165 °C

NC(=O)c1cccc(-c2ccnc(C(=O)N(O)Cc3ccccc3)c2)c1
melting point: 158 to 162 °C

Cc1c(-c2cnccn2)sc2nc(N)[nH]c(=O)c12
melting point: 280 to 300 °C

CC(C)(C)OC(=O)N1C=C(c2ccnc(C(=O)N(O)Cc3ccccc3)c2)CCC1
inhibition at 2 µM [1, 2]: 3.9%

O=C(c1cc(C2=CCC3(CC2)OCCO3)ccn1)N(O)Cc1ccccc1
inhibition at 50 µM [1, 2]: 5.4%

O=C(c1cc(C2CCNCC2)ccn1)N(O)Cc1ccccc1
inhibition at 50 µM [1, 2]: -1.4%

CN1CCN(c2ccnc(C(=O)N(O)Cc3ccccc3)c2)CC1
inhibition at 50 µM [1, 2]: 2.4%

CN(C)C1CCN(c2ccnc(C(=O)N(O)Cc3ccccc3)c2)CC1
inhibition at 50 µM [1, 2]: 12.3%

Cl.O=C(NO)c1cc(NS(=O)(=O)Cc2cccc(Cl)c2)ccn1 [drawing 288]
CPE H3N2 reduction (%) [1, 3]: 2.29%

CN(O)C(=O)c1cc2ccccc2cn1 [drawing 199]
inhibition at 50 µM [1, 2]: -0.6%

NC(=O)c1ccc(-c2ccnc(C(=O)N(O)Cc3ccccc3)c2)cc1 [drawing 232]
inhibition at 5 µM [1, 4]: -2.5%

CCONC(=O)c1cc(N)ccn1
inhibition at 50 µM [1, 2]: 10.5%

O=C(c1cc(N2CCCCC2)cc[n+]1[O-])N(O)Cc1ccccc1
inhibition at 5 µM [1, 4]: -1.83%

CC(C)(C)OC(=O)N1CCC(c2ccnc(C(=O)N(O)Cc3ccccc3)c2)CC1
inhibition at 20 µM [1, 2]: 31.3%

Cc1cccc(C(=O)NOCc2ccccc2)n1 [drawing 170]
inhibition at 50 µM [1, 2]: -2.7%

O=C(c1cc(N2CCCCC2)ccn1)N(O)Cc1ccccc1 [drawing 197]
CPE H3N2 reduction (%) ([1]; activity conc 5 (μM per method)): 1.1%

COC1=CC=C(c2ccnc(C(=O)N(O)Cc3ccccc3)c2)CC1
inhibition at 2 µM [1, 2]: -2.5%

Cl.O=C(NO)c1cc(NS(=O)(=O)Cc2cccc(Cl)c2)ccn1 [drawing 267]
CPE H3N2 reduction (%) [1, 3]: 5.9%

CC1(C)C=C(c2ccnc(C(=O)N(O)Cc3ccccc3)c2)CC(C)(C)N1
inhibition at 50 µM [1, 2]: 2.8%

COc1ccc2nc(C(=O)NOCc3ccccc3)ccc2c1
inhibition at 50 µM [1, 2]: -1.9%

CCONC(=O)c1cc(NCc2cccc(OCc3ccccc3)c2)ccn1
inhibition at 1 µM ([1]; Influenza A virus, H3N2, activity conc 1 (μM per method), read-out: CPE H3N2 reduction (%)): 1.2%

O=C(c1cc(N2CCNCC2)ccn1)N(O)Cc1ccccc1
inhibition at 50 µM [1, 2]: -4.5%

CN(Cc1ccccc1)c1ccnc(C(=O)N(O)Cc2ccccc2)c1
inhibition at 5 µM [1, 4]: 3.8%

O=C(c1ccc(N2CCCC2)cn1)N(O)Cc1ccccc1 [drawing 180]
inhibition at 25 µM ([1]; Influenza A virus, H3N2, activity conc 25 (μM per method), read-out: CPE H3N2 reduction (%)): 1%

CN(C)C(=O)c1cccc(-c2ccnc(C(=O)N(O)Cc3ccccc3)c2)c1
inhibition at 50 µM [1, 2]: 5.3%

CCONC(=O)c1ccc2c(=O)n(C)c(=O)n(C)c2n1
inhibition at 50 µM [1, 2]: -0.4%

O=C(c1cc(C2CCCNC2)ccn1)N(O)Cc1ccccc1 (stereo not drawn)
inhibition at 50 µM [1, 2]: 6.1%

O=C(NO)c1ccccn1
inhibition at 50 µM [1, 2]: 3.15%

O=C(c1cc(N2CCC(N3CCCC3)CC2)ccn1)N(O)Cc1ccccc1 [drawing 226]
inhibition at 50 µM [1, 2]: 10.7%

O=C(NO)c1cc(NS(=O)(=O)Cc2cccc(C(F)(F)F)c2)ccn1
inhibition at 50 µM [1, 2]: -5.6%

CC(C)(C)OC(=O)N1CCC=C(c2ccnc(C(=O)N(O)Cc3ccccc3)c2)C1 [drawing 256]
inhibition at 5 µM [1, 4]: 10.2%

O=C(NO)c1cc2ccccc2cn1 [drawing 201]
inhibition at 50 µM [1, 2]: 94.3% | IC50 ([1]; Influenza A virus, H3N2, read-out: CPE H3N2 IC50): 45 µM

O=C(NOCc1ccccc1)c1ccc(N2CCCC2)cn1 [drawing 177]
inhibition at 20 µM [1, 2]: -8.7%

O=C(c1cc(N2CCCC(F)(F)C2)ccn1)N(O)Cc1ccccc1 [drawing 224]
inhibition at 50 µM [1, 2]: 8.9%

CCON(C)C(=O)c1cccc(C)n1
inhibition at 50 µM [1, 2]: -1.9%

Cc1c(-c2ccccc2)sc2nc(NC3CCCCC3)[nH]c(=O)c12 [SAV-7640]
inhibition at 5 µM [1, 4]: -3.2%

O=C(NOCc1ccccc1)c1ccc(-c2ccccc2)cn1 [drawing 172]
inhibition at 2 µM [1, 2]: -4%

O=C(c1cc(NS(=O)(=O)c2ccccc2)ccn1)N(O)Cc1ccccc1 [drawing 213]
inhibition at 50 µM [1, 2]: -5.2%

NC(=O)c1cccc(-c2ccnc(C(=O)N(O)Cc3ccccc3)c2)c1 [drawing 221]
inhibition at 5 µM [1, 4]: -2.7%

CC(C)(C)OC(=O)NC1CCN(c2ccnc(C(=O)N(O)Cc3ccccc3)c2)CC1 [drawing 227]
inhibition at 50 µM [1, 2]: 8.3%

O=C(c1ccc(N2CCCC2)cn1)N(Cc1ccccc1)OCc1ccccc1 [drawing 178]
inhibition at 5 µM [1, 4]: -2.7%

CCONC(=O)c1ccccn1
inhibition at 50 µM [1, 2]: 12.5%

CC(C)(C)OC(=O)N1CC=C(c2ccnc(C(=O)N(O)Cc3ccccc3)c2)CC1 [drawing 229]
inhibition at 5 µM [1, 4]: 1.2%

O=C(NO)c1cc(NS(=O)(=O)Cc2ccc(F)cc2)ccn1
inhibition at 50 µM [1, 2]: -1.4%

C[C@@H]1CN(c2ccnc(C(=O)N(O)Cc3ccccc3)c2)C[C@H](C)O1 [drawing 218]
inhibition at 50 µM [1, 2]: 10.5%

O=C(NO)c1cc(NCc2ccccc2)ccn1
inhibition at 5 µM [1, 4]: -0.5%

O=C(NO)c1cc(NS(=O)(=O)Cc2ccc(Cl)cc2)ccn1
inhibition at 50 µM [1, 2]: -3.98%

O=C(c1cc(N2CCCCC2)ccn1)N(O)Cc1ccccc1 [drawing 183]
inhibition at 5 µM [1, 4]: 1.1%

Cc1c(-c2ccc(Cl)c(C(F)(F)F)c2)sc2nc(N)[nH]c(=O)c12 [SAV-7623]
inhibition at 5 µM ([1]; Influenza A virus, H3N2, read-out: CPE H3N2 reduction (%), activity conc 5 (μM per method)): 1.9%

O=C(NO)c1ccc(-c2ccccc2)cn1 [drawing 216]
inhibition at 12 µM ([1]; Influenza A virus, H3N2, activity conc 12 (μM per method), read-out: CPE H3N2 reduction (%)): 21.7%

CNC(=O)c1cccc(-c2ccnc(C(=O)N(O)Cc3ccccc3)c2)c1
inhibition at 5 µM [1, 4]: -7.5%

O=C(c1cc(-c2ccc(Cl)cc2)ccn1)N(O)Cc1ccccc1 [drawing 219]
inhibition at 2 µM [1, 2]: -6.7%

CCONC(=O)c1ccc2ccccc2n1
inhibition at 50 µM [1, 2]: -2.2%

CN(O)C(=O)c1cc(N2CCCCC2)ccn1
inhibition at 50 µM [1, 2]: -0.9%

O=C(NO)c1cc(NS(=O)(=O)Cc2ccccc2Cl)ccn1
inhibition at 50 µM [1, 2]: 1.5%
